Reference: patent US20230373989A1, “N-PHENYLAMINOCARBONYL PYRIDINO-, PYRIMIDINO AND BENZO-TROPANES AS MODULATORS OF GPR65” (PATHIOS THERAPEUTICS LIMITED, priority 2020, published 2023)

Each molecule was assayed against T1, human recombinant GPR65 (Homo sapiens, UniProt Q8IYL9) (assay: Human GPR65 cAMP HTRF antagonist assay). Settings: not given.
T1 construct: host or cells: 1321N1 human astrocytoma cells (1321N1-hrGPR65)
T1 sequence (Q8IYL9 whole entry): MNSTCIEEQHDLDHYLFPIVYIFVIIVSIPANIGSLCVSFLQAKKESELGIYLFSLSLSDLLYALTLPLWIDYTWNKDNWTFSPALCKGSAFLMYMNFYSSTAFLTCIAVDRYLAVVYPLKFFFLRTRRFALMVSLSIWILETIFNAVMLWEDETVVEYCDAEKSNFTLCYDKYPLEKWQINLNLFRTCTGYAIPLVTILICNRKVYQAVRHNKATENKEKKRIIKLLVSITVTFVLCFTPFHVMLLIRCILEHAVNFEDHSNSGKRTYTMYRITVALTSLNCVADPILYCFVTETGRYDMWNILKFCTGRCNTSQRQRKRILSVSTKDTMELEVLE
Type: cell-based
Procedure, shortened: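 1321N1 astrocytoma cells stably expressing GPR65 were preincubated with compound for 30 min at room temperature in KRH pH 7.6 with 1 mM IBMX and 200 μM EDTA. They were then stimulated at assay pH 7.2 for 30 min, with controls at pH 7.9. cAMP was read by HTRF (665/620 nm), normalised to controls and fitted by 4-parameter logistic to give IC50.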
With `Cc1ccc(NC(=O)N2C3CCC2c2ccnc(F)c2C3)cc1C(F)(F)F` (racemic) [Compound 160, (±)-1-Fluoro-N-(4-methyl-3-(trifluoromethyl)phenyl)-6,7,8,9-tetrahydro-5H-5,8-epiminocyclohepta[c]pyridine-10-carboxamide] the IC50 was less than 500 nM.
Work on `O=C(Nc1ccc(Cl)c(Cl)c1)N1C2CCC1c1ccnc(Cl)c1C2` (racemic) [Compound 77, (±)-1-Chloro-N-(3,4-dichlorophenyl)-6,7,8,9-tetrahydro-5H-5,8-epiminocyclohepta[c]pyridine-10-carboxamide] yielded an IC50 of less than 500 nM.
In the case of `O=C(Nc1ccc(Cl)c(Cl)c1)N1[C@H]2CC[C@@H]1c1cc[n+]([O-])cc1C2` [Compound 92], the IC50 is reported as less than 500 nM.
With `O=C(Nc1cc(Cl)c(C(F)(F)F)cc1F)N1C2CCC1c1ccc(F)nc1C2` (racemic) [Compound 182, (±)-N-(5-Chloro-2-fluoro-4-(trifluoromethyl)phenyl)-2-fluoro-6,7,8,9-tetrahydro-5H-5,8-epiminocyclohepta[b]pyridine-10-carboxamide] the IC50 was less than 500 nM.
`O=C(Nc1cc(Cl)c(Cl)cc1F)N1[C@H]2CC[C@@H]1c1c[nH]c(=O)cc1C2` [Compound 94, (6S,9R)-N-(4,5-Dichloro-2-fluorophenyl)-3-oxo-3,5,6,7,8,9-hexahydro-2H-6,9-epiminocyclohepta[c]pyridine-10-carboxamide] was tested, and the IC50 was less than 500 nM.
`O=C(Nc1ccc(Cl)c(Cl)c1)N1[C@H]2CC[C@@H]1c1ccncc1C2` [Compound 108, (5R,8S)-N-(3,4-Dichlorophenyl)-6,7,8,9-tetrahydro-5H-5,8-epiminocyclohepta[c]pyridine-10-carboxamide] was tested, and the IC50 was less than 500 nM.
`O=C(Nc1ccc(Cl)c(Cl)c1)N1C2CCC1c1ccc(F)cc1C2` (racemic) [Compound 74, (±)-N-(3,4-Dichlorophenyl)-2-fluoro-6,7,8,9-tetrahydro-5H-5,8-epiminobenzo[7]annulene-10-carboxamide] showed an IC50 of less than 500 nM.

Same assay, conditions: 1321N1-hrGPR65 cells, assay pH 7.2, cAMP HTRF; read-out: hGPR65 IC50 (activity class)
`O=C(Nc1ccc(F)c(F)c1)N1C2CCC1c1cncnc1C2` (racemic) [Compound 6, (±)-N-(3,4-Difluorophenyl)-6,7,8,9-tetrahydro-5H-5,8-epiminocyclohepta[d]pyrimidine-10-carboxamide] was tested, and the IC50 was greater than 5000 nM.
For `O=C(Nc1ccc(-n2cccn2)cc1)N1[C@H]2CC[C@@H]1c1ccnc(F)c1C2` [Compound 183, (5R,8S)-N-(4-(1H-Pyrazol-1-yl)phenyl)-1-fluoro-6,7,8,9-tetrahydro-5H-5,8-epiminocyclohepta[c]pyridine-10-carboxamide], the IC50 was 500 to 5000 nM.
For `O=C(Nc1ccc(Cl)c(Cl)c1)N1C2CCC1C(F)c1ncncc12` (racemic) [Compound 114, trans-(±)-N-(3,4-Dichlorophenyl)-9-fluoro-6,7,8,9-tetrahydro-5H-5,8-epiminocyclohepta[d]pyrimidine-10-carboxamide], the IC50 was 500 to 5000 nM.
For `O=C(Nc1ccc(Cl)c(Cl)c1)N1[C@@H]2CC[C@H]1c1cncnc1C2` [Compound 53, (5S,8R)-N-(3,4-Dichlorophenyl)-6,7,8,9-tetrahydro-5H-5,8-epiminocyclohepta[d]pyrimidine-10-carboxamide], the IC50 was greater than 5000 nM.
